Test results reported in US11059820B2, “Crystalline forms of seletalisib” (UCB BIOPHARMA SPRL, priority 2017, dated 2021).

Columns and labels:
Format in all cases: physicochemical
[1] = Thermodynamic stability: crystals suspended for 30 days in solvent/water mixtures of desired water activity
Text: (§1) The thermodynamic stability was checked by suspending crystals of Form B for 30 days in appropriate solvent/water mixtures, thus creating environments with the desired water activity. As water activity is equivalent to relative humidity (e.g. 60% RH=water activity 0.6), and due to the more rapid exchange of molecules between the crystals and the saturated solution in the suspension, this approach gives the possibility to observe the equilibrium condition of the solid form. […] Kinetic stability was checked by exposing solid, powdery samples to air at selected temperature and relative humidity.
(§2) The thermodynamic stability was checked by suspending crystals of Form F for 30 days in appropriate solvent/water mixtures, as explained above for Form B crystals.

[2] = Dynamic Vapor Sorption (DVS); conditions: 25° C.
Procedure: Two different types of DVS equipment were used, where the sample weight uptake is plotted against the relative humidity over the sample: • SMS DVS controlled by the software DVS Win. The sample temperature is maintained at 25° C. The weight change of the sample as a function of % RH (relative humidity expressed as a percentage) was monitored by the microbalance. The sample was placed on a glass pan attached to the microbalance. A moisture cycle was performed from 30 to 90 to 0 to 30% RH at 25° C. (dm/dt 0.002 with a scanning step 10%). • Projekt Messtechnik Sorptions Prüfsystem SPS 11-100n or Surface Measurement Systems DVS-1; the sample was placed on an aluminium (SPS 11) or platinum (DVS-1) holder on top of the microbalance and conditioned at 25% RH and 25° C. A moisture cycle was performed from 25 to 95 to 0 to 25% RH at 5% RH per hour at 25° C.

[3] = Kinetic stability: solid, powdery samples exposed to air at selected temperature and relative humidity; conditions: 7 weeks, solid powder exposed to air
Text: as §1, §2

Row | thermodynamic stability under ICH conditions ([1]; 25° C./60% RH, (Hydrate)) | thermodynamic stability under ICH conditions ([1]; 40° C./75% RH, (Hydrate)) | continuous water uptake ([2]; from 25% RH to 95% RH) | stepwise mass loss ([2]; second part of the cycle (95% RH to 0% RH), at low RH) | stepwise water uptake ([2]; third part of the cycle (0% RH to 25% RH)) | kinetic stability ([3]; 25° C./60% RH) | kinetic stability ([3]; 40° C./75% RH) | thermodynamic stability under ICH conditions ([1]; 25° C./60% RH) | thermodynamic stability under ICH conditions ([1]; 40° C./75% RH) | limited water uptake ([2]; observed from 70% RH onwards) | hygroscopic behaviour (DVS) ([2]; variable relative humidity) | SMILES
1 | thermodynamically stable | thermodynamically stable | ~2.4 % weight | 3.3 % weight | 3.6% | kinetically stable | kinetically stable | – | – | – | – | [O-][n+]1cccc(-c2nc3c(Cl)cccc3cc2[C@@H](Nc2ncnc3cccnc23)C(F)(F)F)c1 [Form B, N-{(R)-1-[8-Chloro-2-(1-oxypyridin-3-yl)quinolin-3-yl]-2,2,2-trifluoroethyl}pyrido[3,2-d]pyrimidin-4-ylamine, Crystal Form B (Hydrate)]
2 | – | – | – | – | – | – | – | not to be thermodynamically stable | not to be thermodynamically stable | 1% | non-hygroscopic | [O-][n+]1cccc(-c2nc3c(Cl)cccc3cc2[C@@H](Nc2ncnc3cccnc23)C(F)(F)F)c1 [Form F, N-{(R)-1-[8-Chloro-2-(1-oxypyridin-3-yl)quinolin-3-yl]-2,2,2-trifluoroethyl}pyrido[3,2-d]pyrimidin-4-ylamine, Crystal Form F]
